Reference: patent US20180296456A1, “Decapeptide-12 Modulation of Sirtuin Gene Expression in Epidermal Keratinocyte Progenitors” (Escape Therapeutics, Inc., priority 2017, published 2018)
“And” between values parts separate entries of the source, which are not always exact repeats. Equal values may be shown once. Ends that are not written are not given here. Peptide text beside a SMILES is read from it.

How the values were obtained:
[1] = system: SIRT4; experiment: SIRT4 transcription, semi-quantitative RT-PCR in human epidermal progenitors; assay type: cell-based; conditions: 72 h
Procedure: (§1) Human neonatal epidermal progenitors (Thermo Fisher Scientific, NY) were seeded in 6-well plates at a density of 2×10^5 cells/well. Each well received 2 ml of Epilife media containing 60 μM calcium chloride (Thermo Fisher Scientific, NY). Plates were incubated in a humidified chamber at 37 degrees Celsius and 5 percent CO2. Twenty-four hours later, cells were treated with various concentrations of oxyresveratrol or decapeptide-12 dissolved in PBS containing 5 percent DMSO. Control wells received vehicle only (5 percent DMSO and PBS). Final concentration of DMSO in each well was 0.05 percent.
(§2) After a 72 hour incubation period, cells were trypsinized and total RNA extracted, using RNeasy kit (Qiagen, Valencia, Calif.) according to the manufacturer's protocol.
(§3) RNA concentration was determined using nanodrop (Thermo fisher scientific, NY). Two μg of total RNA were used to synthesize cDNA using oligo dT primers and TaqMan reverse transcription reagents (Thermo fisher scientific, NY). The reaction was carried out in DNA Engine Peltier Thermal Cycler (Bio-Rad, Hercules, Calif.). The annealing temperature was 25 degrees Celsius for 10 minutes, followed by first strand synthesis at 48 degrees Celsius for 1 hour, and heat inactivation at 95 degrees Celsius for 5 minutes.
(§4) The SIRT1-7 primers (table 1) were designed using Primer3. The semi-quantitative PCR reactions were performed on a DNA Engine Peltier Thermo Cycler (Bio-Rad, Hercules, Calif.). PCR was carried under the following conditions: denaturation at 94 degrees Celsius for 2 minutes and primer extension at 54 degrees Celsius for 30 seconds in 34 cycles for SIRT 1-7 and the housekeeping gene 18S.
(§5) Samples were run and resolved on a 1.5 percent agarose gel containing 0.5 μg/ml of ethidium bromide and imaged using the FluorChem HD2 Imaging System (Protein simple, San Jose, Calif.). Densitometry analysis was carried out using the AlphaEase FC software (Protein simple, San Jose, Calif.). Intensity ratios were calculated as the intensity value for each gene divided by the intensity value of the internal control gene 18S.
(§6) The effect of the decapeptides P4, P4A, P4B, and P4C upon the transcription levels of sirtuins 1-7 was evaluated. Table 4 summarizes transcription levels for all four decapeptides with the corresponding genes, at tested concentrations of: 10, 30, 50, 100, and 300 (all in μM).

[2] = MTT cell proliferation assay, fibroblasts; assay type: cell-based, human; conditions: human, MTT, 72 h, read-out: fibroblast proliferation rate after 72 hours
Procedure: Proliferation rates for three human cell lines (epidermal progenitors, melanoblasts, and fibroblasts) were determined using a TACS® MTT Cell Proliferation Kit. Cells were seeded at 2.5×10^4/well in 96-well plates in a humidified atmosphere with 5 percent CO2 at 37 degrees Celsius. Twenty-four hours later, the decapeptides were added to the corresponding wells at varying concentrations and incubated for 72 hours. The remainder of the procedure was performed following the manufacturer's protocol.

[3] = system: SIRT2; experiment: SIRT2 transcription, semi-quantitative RT-PCR in human epidermal progenitors; assay type: cell-based; conditions: 72 h
Procedure: as §1, §2, §3, §4, §5, §6

[4] = system: SIRT1; experiment: SIRT1 transcription, semi-quantitative RT-PCR in human epidermal progenitors; assay type: cell-based; conditions: 72 h
Procedure: as §1, §2, §3, §4, §5, §6

[5] = system: human skin; conditions: previously reported; cited from earlier work
[6] = system: patients with dyschromia; conditions: topical cream containing 0.01 percent, twice daily for 8 weeks; cited from earlier work
[7] = system: human epidermal progenitors; experiment: Trypan blue dye exclusion cytotoxicity assay, 72 h, epidermal progenitors; assay type: cell-based; conditions: human epidermal progenitors; for cell death: 72 h, trypan blue
Procedure: Cellular toxicity was measured using a trypan blue dye exclusion assay. Cells were cultured in 6-well plates at a density of 4×10^5 cells/well. Each well received a different concentration of decapeptide-12 or oxyresveratrol (0, 3, 10, 30, 100, 300, and 1000 μM). Plates were incubated at 37 degrees Celsius in a humidified 5 percent CO2 chamber. After 72 h, an aliquot was taken and cells counted using a hemacytometer. Cytotoxicity was measured according to the following formula: [1−(# of cells in control−# of live cells in test sample)/# of cells in control]×100 percent.

For `CCCCCCCCCCCCCCCC(=O)N[C@@H](Cc1ccc(O)cc1)C(=O)N[C@@H](CCCNC(=N)N)C(=O)N[C@@H](CO)C(=O)N[C@@H](CCCNC(=N)N)C(=O)N[C@@H](CCCCN)C(=O)N[C@H](Cc1ccc(O)cc1)C(=O)N[C@@H](CO)C(=O)N[C@@H](CO)C(=O)N[C@@H](Cc1c[nH]c2ccccc12)C(=O)N[C@@H](Cc1ccc(O)cc1)C(N)=O` [P4B, Palmitoyl-YRSRK[*Y]SSWY-amide] (HELM PEPTIDE1{[CCCCCCCCCCCCCCCC(=O)[*:2]].Y.R.S.R.K.[dY].S.S.W.Y.[am]}$$$$V2.0), the “SIRT4 transcription increase relative to control” value ([1]; 10 μM) was 9 ± 1%, the “SIRT4 transcription increase relative to control” value ([1]; 30 μM) was 10 ± 1% and the “SIRT4 transcription increase relative to control” value ([1]; 50 μM) was 17 ± 1%. For the same molecule, the “SIRT4 transcription increase relative to control” value ([1]; 100 μM) was 86 ± 6%, the “SIRT4 transcription increase relative to control” value ([1]; 300 μM) was 49 ± 4% and the viability at 72 h, 3 µM [2] was 100%. It also gave a viability at 72 h, 10 µM [2] of 99 ± 1%, a viability at 72 h, 30 µM [2] of 99 ± 1% and a viability at 72 h, 50 µM [2] of 99 ± 1%. The viability at 72 h, 100 µM [2] was 98 ± 2%, the viability at 72 h, 300 µM [2] was 97 ± 2% and the viability at 72 h, 500 µM [2] was 96 ± 2%. For the same molecule, the viability at 72 h, 1000 µM [2] was 96 ± 2%, the “SIRT2 transcription increase relative to control” value ([3]; 10 μM) was 5 ± 1% and the “SIRT2 transcription increase relative to control” value ([3]; 30 μM) was 8 ± 3%. The “SIRT2 transcription increase relative to control” value ([3]; 50 μM) was 17 ± 6%, the “SIRT2 transcription increase relative to control” value ([3]; 100 μM) was 52 ± 4% and the “SIRT2 transcription increase relative to control” value ([3]; 300 μM) was 40 ± 4%. For the same molecule, the “SIRT1 transcription increase relative to control” value ([4]; 10 μM) was 10 ± 4%, the “SIRT1 transcription increase relative to control” value ([4]; 30 μM) was 10 ± 3% and the “SIRT1 transcription increase relative to control” value ([4]; 50 μM) was 48 ± 3%. For the same molecule, the “SIRT1 transcription increase relative to control” value ([4]; 100 μM) was 135 ± 12% and the “SIRT1 transcription increase relative to control” value ([4]; 300 μM) was 155 ± 3%.
In the case of “Ac-YRSRKYSSWY-NH2 [P4C, Acetyl-YRSRKYSSWY-amide]”, the “SIRT4 transcription increase relative to control” value ([1]; 10 μM) is reported as 3 ± 1%, the “SIRT4 transcription increase relative to control” value ([1]; 30 μM) is reported as 3 ± 1% and the “SIRT4 transcription increase relative to control” value ([1]; 50 μM) is reported as 11 ± 6%. The “SIRT4 transcription increase relative to control” value ([1]; 100 μM) was 32 ± 9%, the “SIRT4 transcription increase relative to control” value ([1]; 300 μM) was 67 ± 9% and the viability at 72 h, 3 µM [2] was 100%. The viability at 72 h, 10 µM [2] was 99 ± 1%, the viability at 72 h, 30 µM [2] was 99 ± 1% and the viability at 72 h, 50 µM [2] was 99 ± 1%. For the same molecule, the viability at 72 h, 100 µM [2] was 98 ± 2%, the viability at 72 h, 300 µM [2] was 97 ± 2% and the viability at 72 h, 500 µM [2] was 96 ± 2%. For the same molecule, the viability at 72 h, 1000 µM [2] was 96 ± 2%, the “SIRT2 transcription increase relative to control” value ([3]; 10 μM) was 5.00% and the “SIRT2 transcription increase relative to control” value ([3]; 30 μM) was 2 ± 1%. The “SIRT2 transcription increase relative to control” value ([3]; 50 μM) was 1.00%, the “SIRT2 transcription increase relative to control” value ([3]; 100 μM) was 42 ± 1% and the “SIRT2 transcription increase relative to control” value ([3]; 300 μM) was 31 ± 9%. For the same molecule, the “SIRT1 transcription increase relative to control” value ([4]; 10 μM) was 7 ± 3%, the “SIRT1 transcription increase relative to control” value ([4]; 30 μM) was 5.00% and the “SIRT1 transcription increase relative to control” value ([4]; 50 μM) was 1.00%. The “SIRT1 transcription increase relative to control” value ([4]; 100 μM) was 137 ± 8% and the “SIRT1 transcription increase relative to control” value ([4]; 300 μM) was 190 ± 9%.
For YRSRKYSSWY [decapeptide-12, YRSRKYSSWY], the hypopigmenting efficacy [5] is given as “potent hypopigmenting efficacy”, the facial skin appearance [6] is given as “overall improvement in facial skin appearance” and the cell death ([7]; 100 μM) is given as 3±1%. The cell death ([7]; 1 mM) was 7±2%, the “cytotoxicity compared with oxyresveratrol” value [7] was “reduced cytotoxicity” and the “SIRT4 transcription increase relative to control” value ([1]; 3 μM) was 3 ± 1%. For the same molecule, the “SIRT4 transcription increase relative to control” value ([1]; 10 μM) was 8.1 ± 4%^, the “SIRT4 transcription increase relative to control” value ([1]; 10 μM, listed as P4) was 8 ± 3% and the “SIRT4 transcription increase relative to control” value ([1]; 30 μM) was 12.1 ± 7%. The “SIRT4 transcription increase relative to control” value ([1]; 30 μM, listed as P4) was 12 ± 7%, the “SIRT4 transcription increase relative to control” value ([1]; 50 μM) was 41.2 ± 13.1% and the “SIRT4 transcription increase relative to control” value ([1]; 50 μM, listed as P4) was 41 ± 13%. For the same molecule, the “SIRT4 transcription increase relative to control” value ([1]; 100 μM, listed as Deca) was 71.4 ± 14.1%, the “SIRT4 transcription increase relative to control” value ([1]; 100 μM, listed as P4) was 71 ± 14% and the “SIRT4 transcription increase relative to control” value ([1]; 300 μM) was 115 ± 11.7%. The “SIRT4 transcription increase relative to control” value ([1]; 300 μM, listed as P4) was 115 ± 12%, the “SIRT4 transcription increase relative to control” value ([1]; 500 μM) was 145 ± 12.7% and the “SIRT4 transcription increase relative to control” value ([1]; 1000 μM) was 151 ± 13.4%. The viability at 72 h, 3 µM [2] was 100%, the viability at 72 h, 10 µM [2] was 99 ± 1% and the viability at 72 h, 30 µM [2] was 99 ± 1%. It also gave a viability at 72 h, 50 µM [2] of 98 ± 1%, a viability at 72 h, 100 µM [2] of 97 ± 1% and a viability at 72 h, 300 µM [2] of 97 ± 1%. The viability at 72 h, 500 µM [2] was 97 ± 2%, the viability at 72 h, 1000 µM [2] was 96 ± 2% and the “SIRT2 transcription increase relative to control” value ([3]; 3 μM) was 1 ± 1%. For the same molecule, the “SIRT2 transcription increase relative to control” value ([3]; 10 μM) was 4.1 ± 3%, the “SIRT2 transcription increase relative to control” value ([3]; 10 μM, listed as P4) was 4 ± 3% and the “SIRT2 transcription increase relative to control” value ([3]; 30 μM) was 11.2 ± 3.7%. For the same molecule, the “SIRT2 transcription increase relative to control” value ([3]; 30 μM, listed as P4) was 11 ± 4%, the “SIRT2 transcription increase relative to control” value ([3]; 50 μM) was 21.5 ± 4.9% and the “SIRT2 transcription increase relative to control” value ([3]; 50 μM, listed as P4) was 22 ± 5%. For the same molecule, the “SIRT2 transcription increase relative to control” value ([3]; 100 μM, listed as Deca) was 35.4 ± 5.5%, the “SIRT2 transcription increase relative to control” value ([3]; 100 μM, listed as P4) was 35 ± 5% and the “SIRT2 transcription increase relative to control” value ([3]; 300 μM) was 61.1± 6.8%. For the same molecule, the “SIRT2 transcription increase relative to control” value ([3]; 300 μM, listed as P4) was 61 ± 7%, the “SIRT2 transcription increase relative to control” value ([3]; 500 μM) was 76 ± 6.1% and the “SIRT2 transcription increase relative to control” value ([3]; 1000 μM) was 76 ± 7.1%. The “SIRT1 transcription increase relative to control” value ([4]; 3 μM) was 3 ± 1%, the “SIRT1 transcription increase relative to control” value ([4]; 10 μM) was 12.2 ± 3.1%^ and the “SIRT1 transcription increase relative to control” value ([4]; 10 μM, listed as P4) was 12 ± 3%. For the same molecule, the “SIRT1 transcription increase relative to control” value ([4]; 30 μM) was 34 ± 6.7%, the “SIRT1 transcription increase relative to control” value ([4]; 30 μM, listed as P4) was 34 ± 7% and the “SIRT1 transcription increase relative to control” value ([4]; 50 μM) was 79.2 ± 12%. For the same molecule, the “SIRT1 transcription increase relative to control” value ([4]; 50 μM, listed as P4) was 79 ± 12%, the “SIRT1 transcription increase relative to control” value ([4]; 100 μM) was 141±11% and 141% and the “SIRT1 transcription increase relative to control” value ([4]; 100 μM, listed as Deca) was 141.2 ± 11%. The “SIRT1 transcription increase relative to control” value ([4]; 100 μM, listed as P4) was 141 ± 11%, the “SIRT1 transcription increase relative to control” value ([4]; 300 μM) was 188 ± 12%^ and the “SIRT1 transcription increase relative to control” value ([4]; 300 μM, listed as P4) was 188 ± 12%. For the same molecule, the “SIRT1 transcription increase relative to control” value ([4]; 500 μM) was 205 ± 13.3%, the “SIRT1 transcription increase relative to control” value ([4]; 1000 μM) was 213% and the “SIRT1 transcription increase relative to control” value ([4]; 1000 μM, listed as Deca) was 213 ± 13.4%.
